Test results published in BigSolDB 2.1.

CO[C@@]1(NC(=O)Cc2cccs2)C(=O)N2C(C(=O)O)=C(COC(N)=O)CS[C@@H]21
solubility (mole fraction)
Conditions | 278.15 K | 283.15 K | 288.15 K | 293.15 K | 298.15 K | 303.15 K | 308.15 K
in acetonitrile | 0.000452 | 0.000491 | 0.000528 | 0.00058 | 0.000621 | 0.000677 | 0.00076
in ethanol | 0.000403 | 0.000484 | 0.000603 | 0.000739 | 0.000852 | 0.00103 | 0.00118
in ethyl acetate | 0.000229 | 0.000241 | 0.000257 | 0.000267 | 0.000282 | 0.000296 | 0.00032
in isopropanol | 4.4e-05 | 7.19e-05 | 0.000109 | 0.000151 | 0.000186 | 0.000243 | 0.000314
in methanol | 0.00565 | 0.00658 | 0.00772 | 0.00919 | 0.011 | 0.0129 | 0.0149
in n-propanol | 0.000209 | 0.000253 | 0.000286 | 0.000338 | 0.000394 | 0.000492 | 0.000561
